{"source": "patent US20060094734A1", "about": "“Composition and method for inducing alertness” (priority 2004, published 2006)", "origin": "cited, not measured here", "tested_on": "rats", "conditions": "rat, in vivo"}
{"smiles": "NCCS(=O)(=O)O", "note": "[taurine, 2-aminoethanesulfonic acid]", "values": [{"measurement": "LD 50", "result": "greater than 5,000 mg/kg"}]}
